In assay [1] the test system is transferase derived from the Sulfolobus solfataricus strain KM1. As to the kind of experiment: Influence of activators and inhibitors on glucosyltrehalose-producing activity. The class given is biochemical.
Assay [2] deals with transferase derived from the Acidianus brierleyi strain DSM 1651. As to the kind of experiment: Inhibitor of transferase (glucosyltrehalose-producing activity). It counts as biochemical. To be noted: 5 mM CuSO4. The method, then: (§1) The influence of each substance listed in Table 8, such as an activating effect or inhibitory effect, was evaluated using similar activity-measuring method to that in Example I-1. Specifically, the listed substances were individually added together with the substrate to the same reaction system as that in the method for measuring glucosyltrehalose-producing activity employed in Example I-1.
(§2) Incidentally, each of the purified enzymes which were obtained in Examples I-3-I-5 and derived from the Sulfolobus solfataricus strain DSM 5833, the Sulfolobus acidocaldarius strain ATCC 33909, and the Acidianus brierleyi strain DSM 1651, respectively, was examined for enzymatic characteristics by using similar manner.

Assay [3] has as its system transferase derived from the Sulfolobus acidocaldarius strain ATCC 33909. The assay is described as above. It counts as biochemical. The conditions noted are these: 5 mM CuSO4. The procedure:
as §1, §2

Assay [4] has as its system transferase derived from the Sulfolobus solfataricus strain DSM 5833. The description is as above. The class given is biochemical. The conditions noted are these: 5 mM CuSO4. The method, then: as §1, §2
In assay [5] the target is T1, amylase derived from the Sulfolobus solfataricus strain KM1 (Saccharolobus solfataricus, UniProt Q55088).
T1 construct: endogenous in cells; host or cells: Sulfolobus solfataricus strain KM1 cells
T1 sequence (Q55088 1-559): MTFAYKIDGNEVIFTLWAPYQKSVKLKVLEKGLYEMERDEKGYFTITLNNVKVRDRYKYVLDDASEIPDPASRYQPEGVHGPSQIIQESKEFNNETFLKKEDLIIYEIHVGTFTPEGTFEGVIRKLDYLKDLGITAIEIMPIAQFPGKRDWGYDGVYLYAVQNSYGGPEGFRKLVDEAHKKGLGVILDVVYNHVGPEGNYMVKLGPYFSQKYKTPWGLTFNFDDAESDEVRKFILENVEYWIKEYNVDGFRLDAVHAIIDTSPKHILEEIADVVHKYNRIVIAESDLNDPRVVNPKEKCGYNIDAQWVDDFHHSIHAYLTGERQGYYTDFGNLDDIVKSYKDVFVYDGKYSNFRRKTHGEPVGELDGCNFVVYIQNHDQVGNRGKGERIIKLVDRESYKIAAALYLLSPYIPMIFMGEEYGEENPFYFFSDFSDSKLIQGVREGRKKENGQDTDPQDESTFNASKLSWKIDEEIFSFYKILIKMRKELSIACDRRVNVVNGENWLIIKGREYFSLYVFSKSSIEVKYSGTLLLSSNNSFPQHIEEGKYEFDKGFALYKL
As to the kind of experiment: biochemical. It counts as biochemical.

The test system of assay [6] is amylase derived from the Sulfolobus acidocaldarius strain ATCC 33909. The assay is described as follows: Inhibitor of amylase (maltotriosyltrehalose-hydrolyzing activity). The class given is biochemical. To be noted: 5 mM CuSO4. The method, then:
(§3) The influence of each substance listed in Table 15, such as an activating effect or inhibitory effect, was evaluated using similar activity-measuring method to that in Example II-1. Specifically, the listed substances were individually added together with the substrate to the same reaction system as that in the method for measuring maltotriosyltrehalose-hydrolyzing activity employed in Example II-1. […] As to the inhibitory effect by SDS, however, the enzymatic activity revived after SDS was removed by dialysis, ultrafiltration or the like.
(§4) Additionally, each of the purified enzymes obtained in Examples II-3 and II-4, i.e. derived from the Sulfolobus solfataricus strain DSM 5833 and the Sulfolobus acidocaldarius strain ATCC 33909, respectively, was also examined for the enzymatic characteristics in a similar manner.

Assay [7] relates to amylase derived from the Sulfolobus solfataricus strain DSM 5833. The assay is described as above. It counts as biochemical. The conditions noted are these: 5 mM CuSO4. The procedure:
as §3, §4

The subject of assay [8] is debranching enzyme derived from the Sulfolobus solfataricus strain KM1. The assay is described as follows: Influence of activators and inhibitors on debranching enzyme activity. The class given is biochemical.
In assay [9] the test system is transferase derived from the Sulfolobus solfataricus strain KM1. As to the kind of experiment: Substrate specificity of the transferase (production of α-1,α-1-transferred isomer). It counts as biochemical. The procedure: It was investigated whether or not the present enzyme acts on each of the substrates listed in Table 9 below to produce its α-1,α-1-transferred isomer. Here, the activity measurement was performed in the same manner as in Example I-1.

The target of assay [10] is T1, amylase derived from the Sulfolobus solfataricus strain KM1. As to the kind of experiment: Substrate specificity of the purified amylase (hydrolyzing properties, TSK-gel Amide-80 HPLC). The class given is biochemical. The method, then:
The hydrolyzing properties were analyzed by allowing 25.0 Units/ml (in terms of the enzymatic activity when maltotriosyltrehalose is used as the substrate) of the present purified enzyme to act on the various 10 mM substrates (except amylopectin and soluble starch were used as 2.8% solutions) listed in Table 16 below, and the hydrolyzed products were also analyzed.
Incidentally, each enzymatic activity in Table 16 is expressed with such a unit as 1 Unit equals the activity of liberating 1 μmol of each of the monosaccharide and disaccharide per hour.

Assay [11] concerns the target T2, recombinant novel amylase (Saccharolobus solfataricus, UniProt Q55088).
T2 sequence (Q55088 1-559): T1 sequence (Q55088 1-559)
The assay is described as follows: Substrate specificity of the recombinant novel amylase (crude enzyme solution).

Consider two compounds from patent US6391595B1, “Transferase and amylase, process for producing the enzymes, use thereof, and gene coding for the same” (Kirin Beer Kabushiki Kaisha, priority 1994, dated 2002).

Consider `O=S(=O)([O-])[O-].[Cu+2]` [CuSO4], for which the “Inhibitor, inhibited” value in assay [1] (5 mM CuSO4), in [2], in assay [3], in assay [4], in [5] (5 mM CuSO4) and in assay [6] was 100% inhibited in each case. For the same compound, the “Inhibitor, inhibited” value in assay [7] was 100% inhibited. Further, the figures for the Residual activity in [1] (Concentration 5 mM), in assay [5] (Concentration 5 mM) and in assay [8] (Concentration 5 mM) were 0.0%, 0% and 0.0%, respectively. The “Activating or inhibitory effect” value in assay [1] (added with the substrate), in assay [5] (added with the substrate) and in [8] (added with the substrate) was “inhibitory effects” each time.

For the compound `OC[C@H]1O[C@H](OC[C@H]2O[C@H](O[C@H]3[C@H](O)[C@@H](O)C(O)O[C@@H]3CO)[C@H](O)[C@@H](O)[C@@H]2O)[C@H](O)[C@@H](O)[C@@H]1O` (some centres unmarked) [Panose], the “Action of the enzyme on the substrate” value in [9], in assay [10] and in assay [11] was “did not act” throughout. Moreover, the Liberated oligosaccharide entry in assay [10] (25.0 Units/ml enzyme, 10 mM substrate (amylopectin and soluble starch 2.8%)) was “not decomposed”; in assay [11] (35.2 Units/ml crude enzyme solution, 10 mM substrate (amylopectin and soluble starch 3.0%)) it was “not decomposed”. Also, the “Production rate of mono- and disaccharides” value is on record as 0 units/ml in assay [10] (25.0 Units/ml enzyme, 10 mM substrate (amylopectin and soluble starch 2.8%), 1 Unit = 1 μmol per hour); 0 units/ml in assay [11] (35.2 Units/ml crude enzyme solution, 10 mM substrate (amylopectin and soluble starch 3.0%), 1 Unit = 1 μmol per hour).
